Earlier results, collected in patent publication US8552052B2, “Use of diindolylmethane-related indoles for the treatment and prevention of respiratory syncytial virus associated conditions” (BioResponse, L.L.C., priority 2004, dated 2013).

System: RSV
Conditions: monthly intramuscular injections; cited from earlier work

## Palivizumab: IgG1 monoclonal antibody that selectively binds to the RSV surface glycoprotein F
  reduction of the rate of hospitalization of at-risk infants: about 55%
